Measurements published in the supplement of paper PMC10627819.

Legend:
S. pneumoniae D39V [1] = assay: fitness (endpoint OD595 vs no drug) (fraction); higher = more growth
How it was run: (§1)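 Fitness expresses the optical density reached at the stationary-phase transition as a fraction of the robust mean of no-drug control wells. It is capped at 1. Measurements were OD595 every 30 min for 14 h at 37 °C after inoculation of 384-well plates at OD595 0.01 (30 µl, or 55 µl for S. pneumoniae), minus the first reading.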

B. subtilis 168 [2] = assay: Bliss interaction score (quartile over a dose matrix) (fitness difference); higher = more antagonism (negative = synergy)
How it was run: (§2)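 The Bliss score was calculated by subtracting the expected fitness, the product of single-drug values, from the observed fitness. OD595 at entry into stationary phase, over the plate's robust no-drug mean and capped at 1, served as the fitness readout. Single-drug values were inferred from combination data, and scores are summarised by quartiles across technical, biological and donor/recipient replicates.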

S. aureus DSM 20231 = assay: as above
How it was run: as §2

S. pneumoniae D39V [3] = assay: as above
How it was run: as §2

S. aureus Newman = assay: as above
How it was run: as §2

B. subtilis 168 [4] = assay: fitness (endpoint OD595 vs no drug) (fraction); higher = more growth
How it was run: as §1
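Wherever Bliss interaction score (quartile over a dose matrix) is given: first quartile when negative (synergy) and third quartile when positive (antagonism).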

CC(=O)NC[C@H]1CN(c2ccc(N3CCOCC3)c(F)c2)C(=O)O1 [Linezolid] + C/C(=C\C(=O)OCCCCCCCCC(=O)O)C[C@@H]1OC[C@H](C[C@@H]2O[C@H]2[C@@H](C)[C@H](C)O)[C@@H](O)[C@H]1O [Pseudomonic acid]
fitness, S. pneumoniae D39V [1]
Conditions | first compound 0.2 µg/mL | first compound 0.4 µg/mL | first compound 0.42 µg/mL | first compound 0.8 µg/mL
partner 0.03 µg/mL | 0.862 | 0.731 | 0.275 | 0.411
partner 0.06 µg/mL | 0.796 | 0.753 | 0.233 | –
partner 0.12 µg/mL | 0.626 | 0.611 | 0.183 | 0.427

Conditions | Bliss interaction score
B. subtilis 168 [2] | -0.0357
S. aureus DSM 20231 | 0.0202
S. aureus Newman | 0.0446
S. pneumoniae D39V [3] | 0.121

CC(=O)NC[C@H]1CN(c2ccc(N3CCOCC3)c(F)c2)C(=O)O1 [Linezolid] + CO[C@H]1/C=C/O[C@@]2(C)Oc3c(C)c(O)c4c(O)c(c(/C=N/N5CCN(C)CC5)c(O)c4c3C2=O)NC(=O)/C(C)=C\C=C\[C@H](C)[C@H](O)[C@@H](C)[C@@H](O)[C@@H](C)[C@H](OC(C)=O)[C@@H]1C [Rifampicin]
fitness, S. pneumoniae D39V [1]
Conditions | first compound 0.105 µg/mL | first compound 0.2 µg/mL | first compound 0.21 µg/mL | first compound 0.42 µg/mL | first compound 0.8 µg/mL
partner 0.05 µg/mL | – | 0.69 | 0.182 | 0.171 | 0.348
partner 0.1 µg/mL | 0.17 | – | 0.135 | 0.103 | 0.216
partner 0.2 µg/mL | 0.127 | – | 0.0997 | 0.113 | –

fitness, S. pneumoniae D39V [1], one replicate
Conditions | first compound 0.2 µg/mL | first compound 0.4 µg/mL | first compound 0.8 µg/mL
partner 0.025 µg/mL | 0.809 | 0.685 | 0.298
partner 0.2 µg/mL | 0 | 0 | 0

Conditions | Bliss interaction score
B. subtilis 168 [2] | -0.0404
S. aureus DSM 20231 | -0.0505
S. aureus Newman | -0.0225
S. pneumoniae D39V [3] | -0.0681

CC(=O)NC[C@H]1CN(c2ccc(N3CCOCC3)c(F)c2)C(=O)O1 [Linezolid] + Clc1ccc(COC(Cn2ccnc2)c2ccc(Cl)cc2Cl)c(Cl)c1 [Miconazole]
fitness, S. pneumoniae D39V [1]
Conditions | first compound 0.105 µg/mL | first compound 0.2 µg/mL | first compound 0.21 µg/mL | first compound 0.4 µg/mL | first compound 0.42 µg/mL | first compound 0.8 µg/mL
partner 1.073 µg/mL | – | 0.924 | – | 0.751 | – | 0.431
partner 1.25 µg/mL | 0.835 | – | 0.653 | – | 0.566 | –
partner 2.145 µg/mL | – | 0.929 | – | 0.765 | – | 0.428
partner 2.5 µg/mL | 0.807 | – | 0.691 | – | 0.524 | –
partner 4.29 µg/mL | – | 0.957 | – | 0.804 | – | 0.54
partner 5 µg/mL | 0.842 | – | 0.74 | – | 0.502 | –

Conditions | Bliss interaction score
B. subtilis 168 [2] | 0.047
S. aureus DSM 20231 | -0.0366
S. aureus Newman | -0.0524
S. pneumoniae D39V [3] | 0.199

CC(=O)NC[C@H]1CN(c2ccc(N3CCOCC3)c(F)c2)C(=O)O1 [Linezolid] + O=C1CN(/N=C/c2ccc([N+](=O)[O-])o2)C(=O)N1 [Nitrofurantoin]
fitness, S. pneumoniae D39V [1]
Conditions | first compound 0.105 µg/mL | first compound 0.2 µg/mL | first compound 0.21 µg/mL | first compound 0.4 µg/mL | first compound 0.42 µg/mL | first compound 0.8 µg/mL
partner 1.285 µg/mL | – | 0.79 | – | 0.695 | – | 0.291
partner 2 µg/mL | 0.784 | – | 0.688 | – | 0.522 | –
partner 2.57 µg/mL | – | 0.791 | – | 0.683 | – | 0.259
partner 4 µg/mL | 0.795 | – | 0.705 | – | 0.488 | –
partner 8 µg/mL | 0.618 | – | 0.346 | – | 0.151 | –

S. pneumoniae D39V [1], partner 5.14 µg/mL, one replicate
Conditions | fitness
first compound 0.2 µg/mL | 0.735
first compound 0.4 µg/mL | 0.534
first compound 0.8 µg/mL | 0.239

Conditions | Bliss interaction score
B. subtilis 168 [2] | -0.141
S. aureus DSM 20231 | -0.0317
S. aureus Newman | -0.0829
S. pneumoniae D39V [3] | -0.147

CO[C@@H]1[C@@H](OC(N)=O)[C@@H](O)[C@H](Oc2ccc3c(O)c(NC(=O)c4ccc(O)c(CC=C(C)C)c4)c(=O)oc3c2C)OC1(C)C [Novobiocin] + CN(N=O)C(=O)N[C@@H](C=O)[C@@H](O)[C@H](O)[C@H](O)CO [Streptozotocin]
fitness, B. subtilis 168 [4], one replicate
Conditions | first compound 0.0125 µg/mL | first compound 0.025 µg/mL | first compound 0.05 µg/mL | first compound 0.125 µg/mL | first compound 0.25 µg/mL | first compound 0.5 µg/mL
partner 0.15 µg/mL | 0.914 | ≥ 1 | 0.877 | 0.869 | 0.925 | 0.516
partner 0.3 µg/mL | 0.982 | ≥ 1 | ≥ 1 | 0.858 | 0.839 | 0.516
partner 0.6 µg/mL | 0.993 | ≥ 1 | 0.945 | ≥ 1 | 0.871 | 0.504

Conditions | Bliss interaction score
B. subtilis 168 [2] | 0.0669
S. aureus DSM 20231 | 0.0969
S. aureus Newman | 0.0508
S. pneumoniae D39V [3] | -0.105

CO[C@@H]1[C@@H](OC(N)=O)[C@@H](O)[C@H](Oc2ccc3c(O)c(NC(=O)c4ccc(O)c(CC=C(C)C)c4)c(=O)oc3c2C)OC1(C)C [Novobiocin] + CN[C@@H]1[C@H](O)[C@H](NC)[C@H]2O[C@@]3(O)C(=O)C[C@@H](C)O[C@H]3O[C@@H]2[C@H]1O [Spectinomycin]
fitness, B. subtilis 168 [4]
Conditions | first compound 0.0125 µg/mL | first compound 0.025 µg/mL | first compound 0.05 µg/mL
partner 2 µg/mL | 0.949 | 0.929 | 0.971
partner 4 µg/mL | 0.967 | 0.948 | ≥ 1
partner 8 µg/mL | 0.949 | 0.924 | 0.944

fitness, B. subtilis 168 [4], one replicate
Conditions | first compound 0.125 µg/mL | first compound 0.25 µg/mL | first compound 0.5 µg/mL
partner 2 µg/mL | 0.898 | 0.779 | 0.526
partner 4 µg/mL | 0.945 | 0.867 | 0.649
partner 8 µg/mL | 0.963 | 0.957 | 0.577

Conditions | Bliss interaction score
B. subtilis 168 [2] | 0.075
S. aureus DSM 20231 | 0.0538
S. aureus Newman | 0.0698
S. pneumoniae D39V [3] | -0.0939

CO[C@@H]1[C@@H](OC(N)=O)[C@@H](O)[C@H](Oc2ccc3c(O)c(NC(=O)c4ccc(O)c(CC=C(C)C)c4)c(=O)oc3c2C)OC1(C)C [Novobiocin] + CN[C@@H]1[C@H](O[C@H]2[C@H](O[C@H]3[C@H](O)[C@@H](O)[C@H](N=C(N)N)[C@@H](O)[C@@H]3N=C(N)N)O[C@@H](C)[C@]2(O)C=O)O[C@@H](CO)[C@H](O)[C@H]1O [Streptomycin]
fitness, B. subtilis 168 [4]
Conditions | first compound 0.0125 µg/mL | first compound 0.025 µg/mL | first compound 0.05 µg/mL
partner 2 µg/mL | 0.967 | ≥ 1 | 0.938
partner 4 µg/mL | – | 0.725 | 0.873
partner 8 µg/mL | 0.0452 | 0.0379 | 0.0344

fitness, B. subtilis 168 [4], one replicate
Conditions | first compound 0.125 µg/mL | first compound 0.25 µg/mL | first compound 0.5 µg/mL
partner 2 µg/mL | 0.926 | 0.843 | 0.592
partner 4 µg/mL | 0.928 | 0.836 | 0.537
partner 8 µg/mL | 0.135 | 0.044 | 0.0121

Conditions | Bliss interaction score
B. subtilis 168 [2] | 0.133
S. aureus DSM 20231 | -0.111
S. aureus Newman | -0.172
S. pneumoniae D39V [3] | 0.0562

CO[C@@H]1[C@@H](OC(N)=O)[C@@H](O)[C@H](Oc2ccc3c(O)c(NC(=O)c4ccc(O)c(CC=C(C)C)c4)c(=O)oc3c2C)OC1(C)C [Novobiocin] + COc1cc(Cc2cnc(N)nc2N)cc(OC)c1OC [Trimethoprim]
fitness, B. subtilis 168 [4]
Conditions | first compound 0.0125 µg/mL | first compound 0.025 µg/mL | first compound 0.05 µg/mL | first compound 0.1 µg/mL | first compound 0.2 µg/mL
partner 0.25 µg/mL | – | – | – | – | 0.754
partner 0.5 µg/mL | 0.566 | 0.525 | 0.502 | 0.492 | 0.554

B. subtilis 168 [4], one replicate
Conditions | fitness
first compound 0.0125 µg/mL, partner 1 µg/mL | 0.471
first compound 0.0125 µg/mL, partner 2 µg/mL | 0.386
first compound 0.025 µg/mL, partner 1 µg/mL | 0.451
first compound 0.025 µg/mL, partner 2 µg/mL | 0.386
first compound 0.05 µg/mL, partner 0.1 µg/mL | 0.947
first compound 0.05 µg/mL, partner 0.125 µg/mL | 0.759
first compound 0.05 µg/mL, partner 0.2 µg/mL | 0.794
first compound 0.05 µg/mL, partner 0.4 µg/mL | 0.546
first compound 0.05 µg/mL, partner 1 µg/mL | 0.521
first compound 0.05 µg/mL, partner 2 µg/mL | 0.354
first compound 0.1 µg/mL, partner 0.1 µg/mL | ≥ 1
first compound 0.1 µg/mL, partner 0.125 µg/mL | 0.77
first compound 0.1 µg/mL, partner 0.2 µg/mL | 0.797
first compound 0.1 µg/mL, partner 0.4 µg/mL | 0.52
first compound 0.125 µg/mL, partner 0.125 µg/mL | 0.835
first compound 0.125 µg/mL, partner 0.25 µg/mL | 0.56
first compound 0.125 µg/mL, partner 0.5 µg/mL | 0.479
first compound 0.2 µg/mL, partner 0.1 µg/mL | 0.978
first compound 0.2 µg/mL, partner 0.125 µg/mL | 0.757
first compound 0.2 µg/mL, partner 0.2 µg/mL | 0.826
first compound 0.2 µg/mL, partner 0.4 µg/mL | 0.474
first compound 0.25 µg/mL, partner 0.125 µg/mL | 0.565
first compound 0.25 µg/mL, partner 0.25 µg/mL | 0.459
first compound 0.25 µg/mL, partner 0.5 µg/mL | 0.45
first compound 0.5 µg/mL, partner 0.125 µg/mL | 0.424
first compound 0.5 µg/mL, partner 0.25 µg/mL | 0.376
first compound 0.5 µg/mL, partner 0.5 µg/mL | 0.406

Conditions | Bliss interaction score
B. subtilis 168 [2] | 0.136
S. aureus DSM 20231 | 0.134
S. aureus Newman | 0.0627
S. pneumoniae D39V [3] | 0.0635

CO[C@@H]1[C@@H](OC(N)=O)[C@@H](O)[C@H](Oc2ccc3c(O)c(NC(=O)c4ccc(O)c(CC=C(C)C)c4)c(=O)oc3c2C)OC1(C)C [Novobiocin] + COc1ccc(C[C@H](N)C(=O)N[C@H]2[C@@H](O)[C@H](n3cnc4c(N(C)C)ncnc43)O[C@@H]2CO)cc1 [Puromycin]
fitness, B. subtilis 168 [4]
Conditions | first compound 0.0125 µg/mL | first compound 0.025 µg/mL | first compound 0.05 µg/mL
partner 0.39 µg/mL | 0.948 | 0.948 | 0.973
partner 0.78 µg/mL | 0.954 | 0.964 | 0.938
partner 1.56 µg/mL | 0.956 | 0.907 | 0.971

fitness, B. subtilis 168 [4], one replicate
Conditions | first compound 0.125 µg/mL | first compound 0.25 µg/mL | first compound 0.5 µg/mL
partner 0.39 µg/mL | 0.89 | 0.819 | 0.554
partner 0.78 µg/mL | 0.962 | 0.953 | 0.655
partner 1.56 µg/mL | 0.905 | 0.853 | 0.544

Conditions | Bliss interaction score
B. subtilis 168 [2] | 0.0583
S. aureus DSM 20231 | -0.0356
S. aureus Newman | -0.0461
S. pneumoniae D39V [3] | 0.105
